Data from patent US10016397B2, “Selective AT2 receptor agonists for use in treatment of cachexia” (Charité-Universitaetsmedizin Berlin, priority 2013, dated 2018).

Columns and labels:
[1] = tested on: ascites hepatoma Yoshida AH-130 cells inoculated into male Wistar rats; assay: AH-130 Yoshida hepatoma cancer cachexia rat model; settings: for survival / mortality (Kaplan Meier): low dose 0.2 mg/kg/day
Text: Use of an ACE inhibitor blocks all activation of both the AT1 and AT2 receptors, therefore inhibiting the beneficial effects of angiotensin II mediated activation of the AT2 receptor.
The ascites hepatoma Yoshida AH-130 cells (10^8) were inoculated into approx. 200 g male Wistar rats. Alternatively animals received saline injection only (sham). The animals were housed in groups of three. The day after inoculation animals were randomized into various groups as described in the methods. […] The primary endpoints of the study included survival and quality of life. Secondary endpoints included body weight and body composition as well as organ weight, which were assessed at the end of the study (or after death).
The ascites hepatoma Yoshida AH-130 cells (10^8) were inoculated into approx. 200 g male Wistar rats. Alternatively animals received saline injection only (sham). The animals were housed in groups of three. The day after inoculation animals were randomized. […] The primary endpoints of the study included survival and quality of life. Secondary endpoints included body weight and body composition as well as organ weight, which were assessed at the end of the study (or after death).

AT1 receptor = settings: read-out: Ki for AT1 receptor; cited from earlier work
[2] = 0.2 mg/kg/d, vs placebo, listed as Compound-21
[3] = 0.2 mg/kg/d, vs placebo, listed as compound-21
[4] = high dose 1.0 mg/kg/d, vs placebo, listed as Compound-21, 1 mg/kg/day
[5] = high dose 1.0 mg/kg/d, vs placebo, listed as compound-21, 1 mg/kg/day

CCOC(=O)[C@H](CCc1ccccc1)N[C@@H](C)C(=O)N1C(=O)N(C)C[C@H]1C(=O)O [imidapril, reference compound]
quality of life (activity and food intake) ([1]; imidapril): did not improve quality of life
hazard ratio and survival ([1]; imidapril, compared to untreated tumor-bearing animals): worse hazard ratio and survival
body weight loss ([1]; imidapril, vs untreated tumor-bearing animals): dose-dependent reduction of body weight loss

CCCCOC(=O)NS(=O)(=O)c1sc(CC(C)C)cc1-c1ccc(Cn2ccnc2)cc1 [Compound 21]
change in body weight during the experiment [1, 2]: significantly reduced loss of body weight
food intake on day 11 after tumor inoculation [1, 2]: significantly increased food intake
heart weight at the end of the study [1, 2]: significantly increased heart weight
spontaneous locomotor activity on day 11 after tumor inoculation [1, 2]: significantly increased activity
weight of brown adipose tissue (BAT) at the end of the study [1, 2]: significantly increased BAT weight
weight of the fast fiber type EDL at the end of the study [1, 2]: significantly increased EDL weight
weight of the mixed fiber type gastrocnemius at the end of the study [1, 2]: significantly increased gastrocnemius weight
weight of the slow fiber type soleus at the end of the study [1, 2]: significantly increased soleus weight
weight of white adipose tissue (WAT) epididymal fat at the end of the study [1, 2]: significantly increased WAT weight
change in body weight during the experiment [1, 3]: attenuated
food intake on day 11 after tumor inoculation [1, 3]: significantly improved
heart weight at the end of the study [1, 3]: improved
spontaneous locomotor activity on day 11 after tumor inoculation [1, 3]: significantly improved
weight of brown adipose tissue (BAT) at the end of the study [1, 3]: improved
weight of the fast fiber type EDL at the end of the study [1, 3]: higher compared to placebo
weight of the mixed fiber type gastrocnemius at the end of the study [1, 3]: higher compared to placebo
weight of the slow fiber type soleus at the end of the study [1, 3]: higher compared to placebo
weight of white adipose tissue (WAT) epididymal fat at the end of the study [1, 3]: improved
weight of the fast fiber type EDL at the end of the study [1, 4]: also improved EDL weight
weight of the slow fiber type soleus at the end of the study [1, 4]: also improved soleus weight
weight of the fast fiber type EDL at the end of the study [1, 5]: also improved
weight of the slow fiber type soleus at the end of the study [1, 5]: also improved
toxicity at higher dose ([1]; higher dose 1.0 mg/kg/d): toxic effects
survival (Kaplan Meier) ([1]; higher dose 1.0 mg/kg/d, vs placebo): not effective
survival / mortality (Kaplan Meier) ([1]; vs placebo, listed as Compound-21, 0.2 mg/kg/day): significantly reduced mortality
survival / mortality (Kaplan Meier) ([1]; vs placebo, listed as compound-21, 0.2 mg/kg/day): significantly improved survival
Ki (AT1 receptor): > 10 µM
